{"source": "ChEMBL document CHEMBL5149966", "about": "“Bisphosphonates, Old Friends of Bones and New Trends in Clinics” (J Med Chem, 2021)", "key": {"Rattus norvegicus": {"organism": "Rattus norvegicus", "experiment": "Anti-osteoclast activity rat assessed as inhibition of bone resorption relative to control", "format": "functional"}, "[1]": {"experiment": "Drug uptake in Beagle dog adrenal tissue at 0.15 mg/kg, iv administered as C14-lableled compound and assessed as radioactivity after 96 hrs by autoradiography", "format": "ADME, organism-based, Canis lupus familiaris", "details": "in vivo"}, "[2]": {"experiment": "Drug uptake in Beagle dog skin at 0.15 mg/kg, iv administered as C14-lableled compound and assessed as radioactivity after 96 hrs by autoradiography", "format": "ADME, organism-based, Canis lupus familiaris, Skin of body", "details": "in vivo"}, "[3]": {"experiment": "Drug uptake in Beagle dog spleen at 0.15 mg/kg, iv administered as C14-lableled compound and assessed as radioactivity after 96 hrs by autoradiography", "format": "ADME, organism-based, Canis lupus familiaris", "details": "in vivo"}, "Trypanosoma cruzi": {"system": "Trypanosoma cruzi", "experiment": "Antiparasitic activity against Trypanosoma cruzi amastigotes infected in vero cells assessed as parasite growth inhibition incubated for 48 hrs by light microscopy", "format": "functional, organism-based"}, "[4]": {"experiment": "Drug uptake in Beagle dog liver at 0.15 mg/kg, iv administered as C14-lableled compound and assessed as radioactivity after 96 hrs by autoradiography", "format": "ADME, organism-based, Canis lupus familiaris", "details": "in vivo"}, "[5]": {"experiment": "Drug uptake in Beagle dog heart at 0.15 mg/kg, iv administered as C14-lableled compound and assessed as radioactivity after 96 hrs by autoradiography", "format": "ADME, organism-based, Canis lupus familiaris", "details": "in vivo"}, "[6]": {"experiment": "Drug uptake in Beagle dog sciatic nerve at 0.15 mg/kg, iv administered as C14-lableled compound and assessed as radioactivity after 96 hrs by autoradiography", "format": "ADME, organism-based, Canis lupus familiaris", "details": "in vivo"}, "[7]": {"experiment": "Drug uptake in Beagle dog knee cartilage at 0.15 mg/kg, iv administered as C14-lableled compound and assessed as radioactivity after 96 hrs by autoradiography", "format": "ADME, organism-based, Canis lupus familiaris, Cartilage tissue", "details": "in vivo"}, "[8]": {"system": "Trypanosoma brucei rhodesiense", "experiment": "Antiparasitic activity against Trypanosoma brucei rhodesiense STIB900 bloodstream trypomastigotes assessed as parasite growth inhibition incubated for 3 days by Alamar Blue fluorometric assay", "format": "functional, organism-based", "details": "STIB900, 72 h"}, "Toxoplasma gondii": {"system": "Toxoplasma gondii", "experiment": "Antiparasitic activity against Toxoplasma gondii tachyzoites infected in human foreskin fibroblast incubated for 48 hrs followed by [5,6-3H]uracil addition and measured after 4 hrs by scintillation counter analysis", "format": "functional, organism-based", "details": "type III"}, "[9]": {"experiment": "Drug uptake in Beagle dog thyroid gland at 0.15 mg/kg, iv administered as C14-lableled compound and assessed as radioactivity after 96 hrs by autoradiography", "format": "ADME, organism-based, Canis lupus familiaris", "details": "in vivo"}, "[10]": {"experiment": "Drug uptake in Beagle dog pancreas at 0.15 mg/kg, iv administered as C14-lableled compound and assessed as radioactivity after 96 hrs by autoradiography", "format": "ADME, organism-based, Canis lupus familiaris", "details": "in vivo"}, "Plasmodium falciparum": {"system": "Plasmodium falciparum", "experiment": "Antiparasitic activity against Plasmodium falciparum 3D7 infected in human erythrocyte assessed as intraerythrocytic growth inhibition incubated for 24 hrs followed by [3H]hypoxanthine addition by microbeta scintillation counter analysis", "format": "functional, organism-based", "details": "3D7, Erythrocyte"}, "[11]": {"experiment": "Drug uptake in Beagle dog small intestine at 0.15 mg/kg, iv administered as C14-lableled compound and assessed as radioactivity after 96 hrs by autoradiography", "format": "ADME, organism-based, Canis lupus familiaris", "details": "in vivo"}, "[12]": {"experiment": "Drug uptake in Beagle dog aorta at 0.15 mg/kg, iv administered as C14-lableled compound and assessed as radioactivity after 96 hrs by autoradiography", "format": "ADME, organism-based, Canis lupus familiaris", "details": "in vivo"}, "[13]": {"experiment": "Drug uptake in Beagle dog lung at 0.15 mg/kg, iv administered as C14-lableled compound and assessed as radioactivity after 96 hrs by autoradiography", "format": "ADME, organism-based, Canis lupus familiaris", "details": "in vivo"}, "[14]": {"experiment": "Drug distribution in NMRI mouse spleen at 4.2 mg/kg administered as C14-lableled compound and assessed as radioactivity and measured upto 2 hrs", "format": "ADME, organism-based", "details": "in vivo"}, "[15]": {"experiment": "Drug distribution in NMRI mouse liver at 4.2 mg/kg administered as C14-lableled compound and assessed as radioactivity and measured upto 2 hrs", "format": "ADME, organism-based", "details": "in vivo"}, "Entamoeba histolytica [16]": {"system": "Entamoeba histolytica", "experiment": "Antiparasitic activity against Entamoeba histolytica trophozoites assessed as parasite growth inhibition incubated for 90 hrs followed by [3H]hypoxanthine addition and measured after 6 hrs by scintillation counter analysis", "format": "functional, organism-based"}, "[17]": {"target": "T1, Ditrans,polycis-undecaprenyl-diphosphate synthase ((2E,6E)-farnesyl-diphosphate specific) (Escherichia coli (strain K12), UniProt P60472)", "T1 sequence (P60472 whole entry)": "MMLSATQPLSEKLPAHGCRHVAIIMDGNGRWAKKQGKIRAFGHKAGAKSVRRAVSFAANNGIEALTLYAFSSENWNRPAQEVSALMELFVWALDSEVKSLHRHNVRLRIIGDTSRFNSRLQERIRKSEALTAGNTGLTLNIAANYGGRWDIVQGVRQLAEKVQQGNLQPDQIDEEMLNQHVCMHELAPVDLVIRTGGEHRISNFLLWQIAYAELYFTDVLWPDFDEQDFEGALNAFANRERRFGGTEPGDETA", "experiment": "Inhibition of Escherichia coli UPPS"}, "Leishmania donovani": {"system": "Leishmania donovani", "experiment": "Antiparasitic activity against amastigote stage Leishmania donovani MHOM/ET/67/L82 infected in CD-1 mouse peritoneal macrophage assessed as reduction in parasite burden incubated for 5 days by Giemsa staining based microscopy", "format": "functional, organism-based", "details": "MHOM/ET/67/L82, Peritoneal macrophage, 120 h"}, "Entamoeba histolytica [18]": {"system": "Entamoeba histolytica", "experiment": "Antiparasitic activity against Entamoeba histolytica trophozoites infected in hamster liver to induce hepatic abscess assessed as reduction in liver abscess formation at 10 mg/kg, ip for 5 days", "format": "functional", "parameters": "scale not given: the % may be the effect or the level left", "details": "time 5 day"}, "Plasmodium berghei": {"system": "Plasmodium berghei", "experiment": "Antiparasitic activity against Plasmodium berghei ANKA infected in BALB/c mouse assessed as reduction in parasitemia at 25 mg/kg, ip for 4 days", "format": "functional", "parameters": "scale not given: the % may be the effect or the level left", "details": "time 4 day"}}}
{"compound": "CC(O)(P(=O)(O)O)P(=O)(O)O", "note": "[ETIDRONIC ACID]", "values": [{"measurement": "fold change (FC)", "setting": "Rattus norvegicus", "value": 1}]}
{"compound": "O.O=P(O)(O)C(O)(Cn1ccnc1)P(=O)(O)O", "note": "[ZOLEDRONIC ACID]", "values": [{"measurement": "Drug uptake", "setting": "[1]", "value": "> 0.1", "unit": "nmol/g"}, {"measurement": "Drug uptake", "setting": "[2]", "value": "> 0.1", "unit": "nmol/g"}, {"measurement": "Drug uptake", "setting": "[3]", "value": "> 0.1", "unit": "nmol/g"}, {"measurement": "fold change (FC)", "setting": "Rattus norvegicus", "value": 6700}, {"measurement": "IC50", "setting": "Trypanosoma cruzi", "value": 35, "unit": "µM"}, {"measurement": "Drug uptake", "setting": "[4]", "value": "> 0.1", "unit": "nmol/g"}, {"measurement": "Drug uptake", "setting": "[5]", "value": "> 0.1", "unit": "nmol/g"}, {"measurement": "Drug uptake", "setting": "[6]", "value": "> 0.1", "unit": "nmol/g"}, {"measurement": "Drug uptake", "setting": "[7]", "value": 0.15, "unit": "nmol/g"}, {"measurement": "IC50", "setting": "[8]", "value": 8.6, "unit": "µM"}, {"measurement": "IC50", "setting": "Toxoplasma gondii", "value": 6.7, "unit": "µM"}, {"measurement": "Drug uptake", "setting": "[9]", "value": 0.3, "unit": "nmol/g"}, {"measurement": "Drug uptake", "setting": "[10]", "value": "> 0.1", "unit": "nmol/g"}, {"measurement": "IC50", "setting": "Plasmodium falciparum", "value": "> 200", "unit": "µM"}, {"measurement": "Drug uptake", "setting": "[11]", "value": "> 0.1", "unit": "nmol/g"}, {"measurement": "Drug uptake", "setting": "[12]", "value": "> 0.1", "unit": "nmol/g"}, {"measurement": "Drug uptake", "setting": "[13]", "value": "> 0.1", "unit": "nmol/g"}]}
{"compound": "NCCC(O)(P(=O)(O)O)P(=O)(O)O", "note": "[PAMIDRONIC ACID]", "values": [{"measurement": "Drug uptake", "setting": "[14]", "value": 20, "unit": "%"}, {"measurement": "Drug uptake", "setting": "[15]", "value": 20, "unit": "%"}, {"measurement": "fold change (FC)", "setting": "Rattus norvegicus", "value": 100}]}
{"compound": "NCCCC(O)(P(=O)(O)O)P(=O)(O)O", "note": "[ALENDRONIC ACID]", "values": [{"measurement": "fold change (FC)", "setting": "Rattus norvegicus", "value": 400}]}
{"compound": "Cc1cccnc1NC(P(=O)(O)O)P(=O)(O)O", "values": [{"measurement": "IC50", "setting": "Plasmodium falciparum", "value": "> 200", "unit": "µM"}]}
{"compound": "O=P(O)(O)C(O)(Nc1ccc(-c2ccccc2)cc1)P(=O)(O)O", "values": [{"measurement": "IC50", "setting": "Entamoeba histolytica [16]", "value": 8.76, "unit": "µM"}, {"measurement": "IC50", "setting": "Plasmodium falciparum", "value": 76.6, "unit": "µM"}]}
{"compound": "CCCCCN(C)CCC(O)(P(=O)(O)O)P(=O)(O)O", "note": "[IBANDRONIC ACID]", "values": [{"measurement": "fold change (FC)", "setting": "Rattus norvegicus", "value": 1000}]}
{"compound": "O=P(O)(O)C(O)(Cc1cccc(-c2cccc3oc4ccccc4c23)c1)P(=O)(O)O", "values": [{"measurement": "IC50", "setting": "[17]", "value": 0.59, "unit": "µM"}]}
{"compound": "O=P(O)(O)C(O)(Cc1cccnc1)P(=O)(O)O", "note": "[RISEDRONIC ACID]", "values": [{"measurement": "fold change (FC)", "setting": "Rattus norvegicus", "value": 2000}]}
{"compound": "CC(N)CC(O)(P(=O)(O)O)P(=O)(O)O", "note": "(stereo not drawn)", "values": [{"measurement": "IC50", "setting": "Leishmania donovani", "value": "> 200", "unit": "µM"}, {"measurement": "IC50", "setting": "Plasmodium falciparum", "value": "> 200", "unit": "µM"}]}
{"compound": "CCCCCCCCCCC(O)(P(=O)(O)O)P(=O)(O)O", "values": [{"measurement": "IC50", "setting": "Toxoplasma gondii", "value": 0.28, "unit": "µM"}, {"measurement": "Activity", "setting": "Entamoeba histolytica [18]", "value": 68, "unit": "%"}]}
{"compound": "O=P(O)(O)C(O)(CCc1cccnc1)P(=O)(O)O", "values": [{"measurement": "IC50", "setting": "Leishmania donovani", "value": "> 200", "unit": "µM"}, {"measurement": "IC50", "setting": "Toxoplasma gondii", "value": "> 200", "unit": "µM"}, {"measurement": "IC50", "setting": "Plasmodium falciparum", "value": "> 200", "unit": "µM"}]}
{"compound": "O=P(O)(O)C(O)(Nc1cccc(-c2ccccc2)c1)P(=O)(O)O", "values": [{"measurement": "IC50", "setting": "Entamoeba histolytica [16]", "value": 6.6, "unit": "µM"}, {"measurement": "IC50", "setting": "Plasmodium falciparum", "value": "> 200", "unit": "µM"}]}
{"compound": "CCCCCCCCNC(O)(P(=O)(O)O)P(=O)(O)O", "values": [{"measurement": "IC50", "setting": "[8]", "value": 1.7, "unit": "µM"}]}
{"compound": "O=P(O)(O)C(Cl)(Cl)P(=O)(O)O", "note": "[CLODRONIC ACID]", "values": [{"measurement": "fold change (FC)", "setting": "Rattus norvegicus", "value": 10}]}
{"compound": "CCCCCC(O)(P(=O)(O)O)P(=O)(O)O", "values": [{"measurement": "IC50", "setting": "Leishmania donovani", "value": "> 200", "unit": "µM"}, {"measurement": "IC50", "setting": "[8]", "value": 92, "unit": "µM"}, {"measurement": "IC50", "setting": "Toxoplasma gondii", "value": 9.1, "unit": "µM"}, {"measurement": "IC50", "setting": "Plasmodium falciparum", "value": 130, "unit": "µM"}]}
{"compound": "CCCCCCCCCC(O)(P(=O)(O)O)P(=O)(O)O", "values": [{"measurement": "IC50", "setting": "Toxoplasma gondii", "value": 0.55, "unit": "µM"}, {"measurement": "IC50", "setting": "Plasmodium falciparum", "value": 0.83, "unit": "µM"}]}
{"compound": "CCCC(O)(P(=O)(O)O)P(=O)(O)O", "values": [{"measurement": "Activity", "setting": "Plasmodium berghei", "value": 80, "unit": "%"}, {"measurement": "IC50", "setting": "Entamoeba histolytica [16]", "value": 157, "unit": "µM"}, {"measurement": "IC50", "setting": "Plasmodium falciparum", "value": 5.53, "unit": "µM"}]}
